# Reference: US12617779B2, “Self degradation-type CDK9 inhibitor prodrug and liposome encapsulating same” (Sumitomo Pharma Co., Ltd., priority 2021, dated 2026)
# Assay: Evaluation of conversion rate to active form in buffer solution (Experimental Example 1)
# Type: physicochemical
# Conditions: for Production rate of Alvocidib / Residual rate: 25 umol/L in buffer solution; for Stability in buffer solution at pH 5: pH 5, 37° C., up to 2 or 3 hours; for Conversion to Alvocidib at pH 7.4: pH 7.4, 37° C., up to 3 hours
# Outline: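 HPLC read-out: residual parent and Alvocidib production rate after 0, 0.5, 1, 2 and 3 hours. Compounds sat at 25 umol/L, 37° C, in buffers from pH 5.0 to 7.4 (50 mM citrate below pH 6.0, 50 mM phosphate otherwise).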
structure (smiles),measurement,setting,value
"CN1CC[C@H](c2c(OC(=O)N(C)CC3CCCCN3)cc(O)c3c(=O)cc(-c4ccccc4Cl)oc23)[C@H](O)C1 (stereo partly drawn) [Example 8, 2-(2-chlorophenyl)-5-hydroxy-8-[(3S,4R)-3-hydroxy-1-methylpiperidin-4-yl]-4-oxo-4H-1-benzopyran-7-yl methyl[(piperidin-2-yl)methyl]carbamate]",Production rate of Alvocidib,"pH5.0, 0 hr, 37° C.",0.7%
same,Residual rate,"pH5.0, 0 hr, 37° C.",95.4%
same,Stability in buffer solution at pH 5,,stable
same,Production rate of Alvocidib,"pH5.0, 0.5 hr, 37° C.",1.2%
same,Residual rate,"pH5.0, 0.5 hr, 37° C.",95.1%
same,Production rate of Alvocidib,"pH5.0, 1 hr, 37° C.",1.6%
same,Residual rate,"pH5.0, 1 hr, 37° C.",95.0%
same,Production rate of Alvocidib,"pH5.0, 2 hr, 37° C.",2.0%
same,Residual rate,"pH5.0, 2 hr, 37° C.",94.7%
same,Production rate of Alvocidib,"pH5.5, 0 hr, 37° C.",0.5%
same,Residual rate,"pH5.5, 0 hr, 37° C.",95.9%
same,Production rate of Alvocidib,"pH5.5, 0.5 hr, 37° C.",1.6%
same,Residual rate,"pH5.5, 0.5 hr, 37° C.",95.0%
same,Production rate of Alvocidib,"pH5.5, 1 hr, 37° C.",2.5%
same,Residual rate,"pH5.5, 1 hr, 37° C.",94.3%
same,Production rate of Alvocidib,"pH5.5, 2 hr, 37° C.",3.5%
same,Residual rate,"pH5.5, 2 hr, 37° C.",93.4%
same,Production rate of Alvocidib,"pH6.0, 0 hr, 37° C.",0.8%
same,Residual rate,"pH6.0, 0 hr, 37° C.",95.7%
same,Production rate of Alvocidib,"pH6.0, 0.5 hr, 37° C.",4.4%
same,Residual rate,"pH6.0, 0.5 hr, 37° C.",92.1%
same,Production rate of Alvocidib,"pH6.0, 1 hr, 37° C.",7.3%
same,Residual rate,"pH6.0, 1 hr, 37° C.",89.4%
same,Production rate of Alvocidib,"pH6.0, 2 hr, 37° C.",10.3%
same,Residual rate,"pH6.0, 2 hr, 37° C.",86.5%
same,Production rate of Alvocidib,"pH6.5, 0 hr, 37° C.",1.5%
same,Residual rate,"pH6.5, 0 hr, 37° C.",95.0%
same,Production rate of Alvocidib,"pH6.5, 0.5 hr, 37° C.",11.2%
same,Residual rate,"pH6.5, 0.5 hr, 37° C.",85.3%
same,Production rate of Alvocidib,"pH6.5, 1 hr, 37° C.",18.9%
same,Residual rate,"pH6.5, 1 hr, 37° C.",77.7%
same,Production rate of Alvocidib,"pH6.5, 2 hr, 37° C.",25.6%
same,Residual rate,"pH6.5, 2 hr, 37° C.",71.2%
same,Production rate of Alvocidib,"pH7.0, 0 hr, 37° C.",4.0%
same,Residual rate,"pH7.0, 0 hr, 37° C.",92.5%
same,Production rate of Alvocidib,"pH7.0, 0.5 hr, 37° C.",27.3%
same,Residual rate,"pH7.0, 0.5 hr, 37° C.",69.3%
same,Production rate of Alvocidib,"pH7.0, 1 hr, 37° C.",40.0%
same,Residual rate,"pH7.0, 1 hr, 37° C.",56.7%
same,Production rate of Alvocidib,"pH7.0, 2 hr, 37° C.",48.2%
same,Residual rate,"pH7.0, 2 hr, 37° C.",49.0%
same,Production rate of Alvocidib,"pH7.4, 0 hr, 37° C.",9.7%
same,Residual rate,"pH7.4, 0 hr, 37° C.",86.7%
same,Conversion to Alvocidib at pH 7.4,,rapidly converted to Alvocidib
same,Production rate of Alvocidib,"pH7.4, 0.5 hr, 37° C.",45.1%
same,Residual rate,"pH7.4, 0.5 hr, 37° C.",51.4%
same,Production rate of Alvocidib,"pH7.4, 1 hr, 37° C.",55.2%
same,Residual rate,"pH7.4, 1 hr, 37° C.",41.7%
same,Production rate of Alvocidib,"pH7.4, 2 hr, 37° C.",58.2%
same,Residual rate,"pH7.4, 2 hr, 37° C.",38.4%
"CCCN(CC1CCCCN1)C(=O)Oc1cc(O)c2c(=O)cc(-c3ccccc3Cl)oc2c1[C@H]1CCN(C)C[C@H]1O (stereo partly drawn) [Example 9, 2-(2-chlorophenyl)-5-hydroxy-8-[(3S,4R)-3-hydroxy-1-methylpiperidin-4-yl]-4-oxo-4H-1-benzopyran-7-yl [(piperidin-2-yl)methyl]propylcarbamate]",Efficiency of conversion to Alvocidib,"buffer solution, 37° C.",higher efficiency
same,Production rate of Alvocidib,"pH5.0, 0 hr, 37° C.",1.4%
same,Residual rate,"pH5.0, 0 hr, 37° C.",96.2%
same,Stability in buffer solution at pH 5,,stable
same,Production rate of Alvocidib,"pH5.0, 0.5 hr, 37° C.",1.7%
same,Residual rate,"pH5.0, 0.5 hr, 37° C.",95.9%
same,Production rate of Alvocidib,"pH5.0, 1 hr, 37° C.",2.1%
same,Residual rate,"pH5.0, 1 hr, 37° C.",95.6%
same,Production rate of Alvocidib,"pH5.0, 2 hr, 37° C.",2.8%
same,Residual rate,"pH5.0, 2 hr, 37° C.",94.9%
same,Production rate of Alvocidib,"pH5.0, 3 hr, 37° C.",3.6%
same,Residual rate,"pH5.0, 3 hr, 37° C.",94.0%
same,Production rate of Alvocidib,"pH5.5, 0 hr, 37° C.",1.4%
same,Residual rate,"pH5.5, 0 hr, 37° C.",96.2%
same,Production rate of Alvocidib,"pH5.5, 0.5 hr, 37° C.",2.4%
same,Residual rate,"pH5.5, 0.5 hr, 37° C.",95.2%
same,Production rate of Alvocidib,"pH5.5, 1 hr, 37° C.",3.4%
same,Residual rate,"pH5.5, 1 hr, 37° C.",94.4%
same,Production rate of Alvocidib,"pH5.5, 2 hr, 37° C.",5.2%
same,Residual rate,"pH5.5, 2 hr, 37° C.",92.5%
same,Production rate of Alvocidib,"pH5.5, 3 hr, 37° C.",7.2%
same,Residual rate,"pH5.5, 3 hr, 37° C.",90.5%
same,Production rate of Alvocidib,"pH6.0, 0 hr, 37° C.",1.5%
same,Residual rate,"pH6.0, 0 hr, 37° C.",96.2%
same,Production rate of Alvocidib,"pH6.0, 0.5 hr, 37° C.",4.9%
same,Residual rate,"pH6.0, 0.5 hr, 37° C.",92.9%
same,Production rate of Alvocidib,"pH6.0, 1 hr, 37° C.",8.2%
same,Residual rate,"pH6.0, 1 hr, 37° C.",89.5%
same,Production rate of Alvocidib,"pH6.0, 2 hr, 37° C.",14.4%
same,Residual rate,"pH6.0, 2 hr, 37° C.",83.0%
same,Production rate of Alvocidib,"pH6.0, 3 hr, 37° C.",20.8%
same,Residual rate,"pH6.0, 3 hr, 37° C.",76.6%
same,Production rate of Alvocidib,"pH6.5, 0 hr, 37° C.",1.7%
same,Residual rate,"pH6.5, 0 hr, 37° C.",95.9%
same,Production rate of Alvocidib,"pH6.5, 0.5 hr, 37° C.",11.2%
same,Residual rate,"pH6.5, 0.5 hr, 37° C.",86.4%
same,Production rate of Alvocidib,"pH6.5, 1 hr, 37° C.",20.2%
same,Residual rate,"pH6.5, 1 hr, 37° C.",77.3%
same,Production rate of Alvocidib,"pH6.5, 2 hr, 37° C.",35.4%
same,Residual rate,"pH6.5, 2 hr, 37° C.",61.9%
same,Production rate of Alvocidib,"pH6.5, 3 hr, 37° C.",49.0%
same,Residual rate,"pH6.5, 3 hr, 37° C.",48.4%
same,Production rate of Alvocidib,"pH7.0, 0 hr, 37° C.",2.2%
same,Residual rate,"pH7.0, 0 hr, 37° C.",95.4%
same,Production rate of Alvocidib,"pH7.0, 0.5 hr, 37° C.",24.1%
same,Residual rate,"pH7.0, 0.5 hr, 37° C.",73.1%
same,Production rate of Alvocidib,"pH7.0, 1 hr, 37° C.",42.0%
same,Residual rate,"pH7.0, 1 hr, 37° C.",55.1%
same,Production rate of Alvocidib,"pH7.0, 2 hr, 37° C.",66.1%
same,Residual rate,"pH7.0, 2 hr, 37° C.",31.0%
same,Production rate of Alvocidib,"pH7.0, 3 hr, 37° C.",81.0%
same,Residual rate,"pH7.0, 3 hr, 37° C.",16.7%
same,Production rate of Alvocidib,"pH7.4, 0 hr, 37° C.",3.4%
same,Residual rate,"pH7.4, 0 hr, 37° C.",94.3%
same,Conversion to Alvocidib at pH 7.4,,rapidly converted to Alvocidib
same,Production rate of Alvocidib,"pH7.4, 0.5 hr, 37° C.",48.7%
same,Residual rate,"pH7.4, 0.5 hr, 37° C.",48.7%
same,Production rate of Alvocidib,"pH7.4, 1 hr, 37° C.",73.6%
same,Residual rate,"pH7.4, 1 hr, 37° C.",23.7%
same,Production rate of Alvocidib,"pH7.4, 2 hr, 37° C.",92.4%
same,Residual rate,"pH7.4, 2 hr, 37° C.",5.6%
same,Production rate of Alvocidib,"pH7.4, 3 hr, 37° C.",96.7%
same,Residual rate,"pH7.4, 3 hr, 37° C.",1.1%
